Measured values taken from the kinase profiling compilation of Christmann-Franck et al. (2016).

Legend:
Test in all cases: KINOMEscan competition binding
Conditions in all cases: compound 10.0 µM
AURKA (human) = AURKA (human) (UniProt O14965)
BMPR2 (human) = BMPR2 (human) (UniProt Q13873)
CDC42BPB (human) = CDC42BPB (human) (UniProt Q9Y5S2)
CDK7 (human) = CDK7 (human) (UniProt P50613)
CDKL2 (human) = CDKL2 (human) (UniProt Q92772)
CLK3 (human) = CLK3 (human) (UniProt P49761)
CSNK1E (human) = CSNK1E (human) (UniProt P49674)
CaMK1 (human) = CaMK1 (human) (UniProt Q14012)
DAPK3 (human) = DAPK3 (human) (UniProt O43293)
DDR2 (human) = DDR2 (human) (UniProt Q16832)
EIF2AK2 (human) = EIF2AK2 (human) (UniProt P19525)
EPHA3 (human) = EPHA3 (human) (UniProt P29320)
EPHB1 (human) = EPHB1 (human) (UniProt P54762)
EPHB3 (human) = EPHB3 (human) (UniProt P54753)
HIPK1 (human) = HIPK1 (human) (UniProt Q86Z02)
IRAK3 (human) = IRAK3 (human) (UniProt Q9Y616)
[1] = molecular target: JAK1 JH1 catalytic (human) (UniProt P23458)
[2] = molecular target: JAK2 JH1 catalytic (human) (UniProt O60674)
MAP3K9 (human) = MAP3K9 (human) (UniProt P80192)
MAP4K5 (human) = MAP4K5 (human) (UniProt Q9Y4K4)
MAPK1 (human) = MAPK1 (human) (UniProt P28482)
MAPK12 (human) = MAPK12 (human) (UniProt P53778)
MAPK4 (human) = MAPK4 (human) (UniProt P31152)
MARK1 (human) = MARK1 (human) (UniProt Q9P0L2)
MUSK (human) = MUSK (human) (UniProt O15146)
MYLK2 (human) = MYLK2 (human) (UniProt Q9H1R3)
NEK6 (human) = NEK6 (human) (UniProt Q9HC98)
NEK7 (human) = NEK7 (human) (UniProt Q8TDX7)
PHKG2 (human) = PHKG2 (human) (UniProt P15735)
PIM1 (human) = PIM1 (human) (UniProt P11309)
PIP4K2B (human) = PIP4K2B (human) (UniProt P78356)
PRKACA (human) = PRKACA (human) (UniProt P17612)
PRKACB (human) = PRKACB (human) (UniProt P22694)
RIOK2 (human) = RIOK2 (human) (UniProt Q9BVS4)
RIPK2 (human) = RIPK2 (human) (UniProt O43353)
ROS1 (human) = ROS1 (human) (UniProt P08922)
RPS6KA6 KD1 (human) = RPS6KA6 KD1 (human) (UniProt Q9UK32)
SRC (human) = SRC (human) (UniProt P12931)
TLK1 (human) = TLK1 (human) (UniProt Q9UKI8)
TSSK1B (human) = TSSK1B (human) (UniProt Q9BXA7)

JAK2 JH1 catalytic (human), sequence (O60674 whole entry, looked up): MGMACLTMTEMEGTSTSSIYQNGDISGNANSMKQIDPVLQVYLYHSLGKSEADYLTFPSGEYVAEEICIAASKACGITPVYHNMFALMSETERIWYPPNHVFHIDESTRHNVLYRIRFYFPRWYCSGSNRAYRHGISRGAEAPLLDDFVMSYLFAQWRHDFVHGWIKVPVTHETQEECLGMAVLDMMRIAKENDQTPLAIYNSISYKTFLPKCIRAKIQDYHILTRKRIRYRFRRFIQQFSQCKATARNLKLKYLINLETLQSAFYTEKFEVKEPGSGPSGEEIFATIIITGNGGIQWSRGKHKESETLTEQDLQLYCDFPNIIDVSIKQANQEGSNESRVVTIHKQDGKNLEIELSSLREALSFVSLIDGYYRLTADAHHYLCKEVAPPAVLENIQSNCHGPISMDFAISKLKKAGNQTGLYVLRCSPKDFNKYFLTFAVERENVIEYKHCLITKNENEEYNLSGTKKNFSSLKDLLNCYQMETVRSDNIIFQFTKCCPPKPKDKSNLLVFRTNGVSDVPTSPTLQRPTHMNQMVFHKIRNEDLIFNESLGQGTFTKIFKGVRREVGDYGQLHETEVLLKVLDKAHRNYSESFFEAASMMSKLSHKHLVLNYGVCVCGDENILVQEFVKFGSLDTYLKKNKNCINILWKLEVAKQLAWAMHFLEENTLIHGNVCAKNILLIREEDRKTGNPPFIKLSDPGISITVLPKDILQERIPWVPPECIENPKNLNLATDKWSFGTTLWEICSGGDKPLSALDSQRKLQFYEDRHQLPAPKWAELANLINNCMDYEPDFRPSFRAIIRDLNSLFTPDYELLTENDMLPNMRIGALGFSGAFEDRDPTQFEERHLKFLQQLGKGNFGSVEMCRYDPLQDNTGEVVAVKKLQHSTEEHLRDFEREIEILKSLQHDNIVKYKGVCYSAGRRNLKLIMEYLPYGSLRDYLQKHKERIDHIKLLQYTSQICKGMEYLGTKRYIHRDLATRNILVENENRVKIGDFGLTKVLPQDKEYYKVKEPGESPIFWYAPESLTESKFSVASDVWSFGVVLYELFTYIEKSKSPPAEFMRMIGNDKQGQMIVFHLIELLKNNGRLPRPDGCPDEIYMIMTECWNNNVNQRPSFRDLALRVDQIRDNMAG
MAP4K5 (human), sequence (Q9Y4K4 whole entry, looked up): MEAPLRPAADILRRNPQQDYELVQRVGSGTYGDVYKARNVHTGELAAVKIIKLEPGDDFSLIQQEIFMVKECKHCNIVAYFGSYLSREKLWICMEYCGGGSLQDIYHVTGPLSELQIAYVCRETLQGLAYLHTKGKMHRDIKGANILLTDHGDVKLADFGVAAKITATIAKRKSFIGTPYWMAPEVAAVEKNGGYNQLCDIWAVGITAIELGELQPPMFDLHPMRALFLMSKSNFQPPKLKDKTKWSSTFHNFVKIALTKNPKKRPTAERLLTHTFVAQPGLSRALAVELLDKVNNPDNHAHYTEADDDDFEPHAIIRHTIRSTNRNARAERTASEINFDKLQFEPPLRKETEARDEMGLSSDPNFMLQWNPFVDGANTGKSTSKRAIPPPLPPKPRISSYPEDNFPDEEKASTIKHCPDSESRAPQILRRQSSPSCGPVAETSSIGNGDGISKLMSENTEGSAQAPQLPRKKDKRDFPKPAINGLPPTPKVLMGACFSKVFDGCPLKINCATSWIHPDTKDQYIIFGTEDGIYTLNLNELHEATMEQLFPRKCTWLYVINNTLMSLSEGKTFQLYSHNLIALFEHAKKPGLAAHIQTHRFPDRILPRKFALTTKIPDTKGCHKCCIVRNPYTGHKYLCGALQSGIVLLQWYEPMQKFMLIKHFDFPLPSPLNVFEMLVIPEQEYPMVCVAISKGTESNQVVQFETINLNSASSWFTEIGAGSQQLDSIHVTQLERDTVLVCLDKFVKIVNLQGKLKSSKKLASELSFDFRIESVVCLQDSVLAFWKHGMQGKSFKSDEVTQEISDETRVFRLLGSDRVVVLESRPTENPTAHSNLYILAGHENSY
PIM1 (human), sequence (P11309 whole entry, looked up): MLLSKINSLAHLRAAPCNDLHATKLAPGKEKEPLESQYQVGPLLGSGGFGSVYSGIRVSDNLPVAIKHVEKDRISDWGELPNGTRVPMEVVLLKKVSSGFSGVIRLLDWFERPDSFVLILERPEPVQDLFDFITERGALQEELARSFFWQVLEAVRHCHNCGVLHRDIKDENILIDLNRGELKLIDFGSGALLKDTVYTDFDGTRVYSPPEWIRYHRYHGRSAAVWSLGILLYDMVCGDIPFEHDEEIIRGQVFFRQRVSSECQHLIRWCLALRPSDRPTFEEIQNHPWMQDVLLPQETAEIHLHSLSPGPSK
NEK7 (human), sequence (Q8TDX7 whole entry, looked up): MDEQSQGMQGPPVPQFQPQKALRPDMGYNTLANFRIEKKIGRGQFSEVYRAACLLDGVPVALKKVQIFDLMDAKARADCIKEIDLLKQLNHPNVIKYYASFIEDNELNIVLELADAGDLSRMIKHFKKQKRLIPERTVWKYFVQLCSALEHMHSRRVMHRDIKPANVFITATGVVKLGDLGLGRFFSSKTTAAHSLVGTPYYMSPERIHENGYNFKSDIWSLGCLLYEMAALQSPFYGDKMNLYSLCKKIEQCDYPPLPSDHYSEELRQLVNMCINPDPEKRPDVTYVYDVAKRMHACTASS
IRAK3 (human), sequence (Q9Y616 whole entry, looked up): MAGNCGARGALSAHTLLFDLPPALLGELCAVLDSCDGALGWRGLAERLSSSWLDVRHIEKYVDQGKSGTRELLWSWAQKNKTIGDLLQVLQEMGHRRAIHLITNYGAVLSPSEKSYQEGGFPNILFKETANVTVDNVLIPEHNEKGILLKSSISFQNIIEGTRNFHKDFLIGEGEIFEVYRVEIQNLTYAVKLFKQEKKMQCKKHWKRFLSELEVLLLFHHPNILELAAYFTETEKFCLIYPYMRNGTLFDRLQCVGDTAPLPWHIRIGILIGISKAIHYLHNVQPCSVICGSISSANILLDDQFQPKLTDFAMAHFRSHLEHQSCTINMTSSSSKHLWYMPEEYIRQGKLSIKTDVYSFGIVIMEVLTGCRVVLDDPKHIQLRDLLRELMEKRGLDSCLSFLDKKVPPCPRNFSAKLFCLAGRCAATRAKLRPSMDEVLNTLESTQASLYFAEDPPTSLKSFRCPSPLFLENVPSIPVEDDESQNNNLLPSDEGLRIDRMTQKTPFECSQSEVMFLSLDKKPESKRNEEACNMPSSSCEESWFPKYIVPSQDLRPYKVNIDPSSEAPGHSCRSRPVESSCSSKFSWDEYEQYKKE
MAP3K9 (human), sequence (P80192 whole entry, looked up): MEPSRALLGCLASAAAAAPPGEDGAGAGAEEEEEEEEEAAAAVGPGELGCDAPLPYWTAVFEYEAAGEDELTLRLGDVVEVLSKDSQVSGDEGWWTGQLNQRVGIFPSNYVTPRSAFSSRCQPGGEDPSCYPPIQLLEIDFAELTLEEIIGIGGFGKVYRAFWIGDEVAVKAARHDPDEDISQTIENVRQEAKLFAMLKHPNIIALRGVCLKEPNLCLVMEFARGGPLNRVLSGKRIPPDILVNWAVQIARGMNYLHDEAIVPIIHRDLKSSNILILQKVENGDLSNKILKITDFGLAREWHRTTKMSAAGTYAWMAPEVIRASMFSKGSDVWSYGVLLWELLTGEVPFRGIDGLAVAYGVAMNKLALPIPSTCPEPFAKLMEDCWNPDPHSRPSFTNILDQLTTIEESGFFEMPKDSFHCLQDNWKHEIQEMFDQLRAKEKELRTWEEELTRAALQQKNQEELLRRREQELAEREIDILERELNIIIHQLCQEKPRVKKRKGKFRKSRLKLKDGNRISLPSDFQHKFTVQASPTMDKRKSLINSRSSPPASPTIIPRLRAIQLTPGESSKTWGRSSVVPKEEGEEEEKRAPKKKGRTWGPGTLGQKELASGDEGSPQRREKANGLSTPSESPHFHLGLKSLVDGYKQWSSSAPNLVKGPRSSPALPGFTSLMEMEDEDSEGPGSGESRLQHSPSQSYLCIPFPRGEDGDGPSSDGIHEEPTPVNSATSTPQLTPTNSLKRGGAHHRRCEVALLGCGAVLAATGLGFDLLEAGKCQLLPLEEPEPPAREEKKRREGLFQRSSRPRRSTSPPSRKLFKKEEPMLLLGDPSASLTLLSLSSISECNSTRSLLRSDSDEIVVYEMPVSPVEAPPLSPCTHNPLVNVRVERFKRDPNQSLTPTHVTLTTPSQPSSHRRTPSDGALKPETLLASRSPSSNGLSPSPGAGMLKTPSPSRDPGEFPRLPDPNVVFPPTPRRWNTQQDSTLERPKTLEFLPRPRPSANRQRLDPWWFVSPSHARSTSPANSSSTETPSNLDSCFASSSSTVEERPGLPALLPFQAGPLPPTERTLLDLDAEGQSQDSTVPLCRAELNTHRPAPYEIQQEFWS
EIF2AK2 (human), sequence (P19525 whole entry, looked up): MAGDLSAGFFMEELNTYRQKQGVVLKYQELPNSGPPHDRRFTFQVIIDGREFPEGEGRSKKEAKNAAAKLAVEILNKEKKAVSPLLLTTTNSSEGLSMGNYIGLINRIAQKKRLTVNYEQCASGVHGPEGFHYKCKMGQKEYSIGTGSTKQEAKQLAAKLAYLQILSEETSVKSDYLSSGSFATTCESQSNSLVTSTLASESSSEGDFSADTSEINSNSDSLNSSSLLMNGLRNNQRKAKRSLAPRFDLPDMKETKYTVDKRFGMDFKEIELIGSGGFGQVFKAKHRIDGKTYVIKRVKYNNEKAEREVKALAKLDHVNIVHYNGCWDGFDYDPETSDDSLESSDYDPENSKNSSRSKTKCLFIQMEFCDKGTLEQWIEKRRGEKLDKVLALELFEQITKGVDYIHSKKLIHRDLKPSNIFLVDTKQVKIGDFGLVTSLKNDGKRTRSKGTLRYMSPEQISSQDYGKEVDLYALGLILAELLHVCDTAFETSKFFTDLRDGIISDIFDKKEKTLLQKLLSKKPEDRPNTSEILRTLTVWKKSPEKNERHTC

SMILES	kinase still bound, per cent of control (AURKA (human)) [%]	kinase still bound, per cent of control (BMPR2 (human)) [%]	kinase still bound, per cent of control (CDC42BPB (human)) [%]	kinase still bound, per cent of control (CDK7 (human)) [%]	kinase still bound, per cent of control (CDKL2 (human)) [%]	kinase still bound, per cent of control (CLK3 (human)) [%]	kinase still bound, per cent of control (CSNK1E (human)) [%]	kinase still bound, per cent of control (CaMK1 (human)) [%]	kinase still bound, per cent of control (DAPK3 (human)) [%]	kinase still bound, per cent of control (DDR2 (human)) [%]	kinase still bound, per cent of control (EIF2AK2 (human)) [%]	kinase still bound, per cent of control (EPHA3 (human)) [%]	kinase still bound, per cent of control (EPHB1 (human)) [%]	kinase still bound, per cent of control (EPHB3 (human)) [%]	kinase still bound, per cent of control (HIPK1 (human)) [%]	kinase still bound, per cent of control (IRAK3 (human)) [%]	kinase still bound, per cent of control [1] [%]	kinase still bound, per cent of control [2] [%]	kinase still bound, per cent of control (MAP3K9 (human)) [%]	kinase still bound, per cent of control (MAP4K5 (human)) [%]	other results
Cn1c(=O)n(-c2ccc(C(C)(C)C#N)cc2)c2c3cc(-c4cnc5ccccc5c4)ccc3ncc21	100	100	100	100	28	100	100	100	100	100	100	100	100	100	100	100	16	20	100	100	kinase still bound, per cent of control (MAPK1 (human)): 100%; kinase still bound, per cent of control (MAPK12 (human)): 100%; kinase still bound, per cent of control (MAPK4 (human)): 100%; kinase still bound, per cent of control (MARK1 (human)): 100%; kinase still bound, per cent of control (MUSK (human)): 100%; kinase still bound, per cent of control (MYLK2 (human)): 100%; kinase still bound, per cent of control (NEK6 (human)): 100%; kinase still bound, per cent of control (NEK7 (human)): 100%; kinase still bound, per cent of control (PHKG2 (human)): 100%; kinase still bound, per cent of control (PIM1 (human)): 100%; kinase still bound, per cent of control (PIP4K2B (human)): 100%; kinase still bound, per cent of control (PRKACA (human)): 100%; kinase still bound, per cent of control (PRKACB (human)): 100%; kinase still bound, per cent of control (RIOK2 (human)): 100%; kinase still bound, per cent of control (RIPK2 (human)): 100%; kinase still bound, per cent of control (ROS1 (human)): 100%; kinase still bound, per cent of control (RPS6KA6 KD1 (human)): 100%; kinase still bound, per cent of control (SRC (human)): 100%; kinase still bound, per cent of control (TLK1 (human)): 100%; kinase still bound, per cent of control (TSSK1B (human)): 100%
N#Cc1c(NC(=O)c2cccc3ccccc23)sc2c1CCCC2	100	100	80	82	97	72	70	73	88	100	100	100	91	98	91	100	78	100	72	65	kinase still bound, per cent of control (MAPK1 (human)): 89%; kinase still bound, per cent of control (MAPK12 (human)): 82%; kinase still bound, per cent of control (MAPK4 (human)): 90%; kinase still bound, per cent of control (MARK1 (human)): 100%; kinase still bound, per cent of control (MUSK (human)): 97%; kinase still bound, per cent of control (MYLK2 (human)): 100%; kinase still bound, per cent of control (NEK6 (human)): 92%; kinase still bound, per cent of control (NEK7 (human)): 84%; kinase still bound, per cent of control (PHKG2 (human)): 83%; kinase still bound, per cent of control (PIM1 (human)): 100%; kinase still bound, per cent of control (PIP4K2B (human)): 100%; kinase still bound, per cent of control (PRKACA (human)): 78%; kinase still bound, per cent of control (PRKACB (human)): 80%; kinase still bound, per cent of control (RIOK2 (human)): 91%; kinase still bound, per cent of control (RIPK2 (human)): 58%; kinase still bound, per cent of control (ROS1 (human)): 90%; kinase still bound, per cent of control (RPS6KA6 KD1 (human)): 70%; kinase still bound, per cent of control (SRC (human)): 81%; kinase still bound, per cent of control (TLK1 (human)): 76%; kinase still bound, per cent of control (TSSK1B (human)): 100%
